Reference: article PMC8241751, “Influence of the Dabcyl group on the cellular uptake of cationic peptides: short oligoarginines as efficient cell-penetrating peptides” (Amino Acids, 2021)
Where a SMILES comes first, the peptide text is derived from it. The star is where a group is joined. 5FAM = O=C1OC2(c3ccc(O)cc3Oc3cc(O)ccc32)c2ccc(C(=O)*)cc21; X1 = CN(C)c1ccc(/N=N/c2ccc(C(=O)*)cc2)cc1

Tested on: CHO-K1 cells
Assay: Absolute quantification of total internalised peptide by fluorometry
Conditions: for Total (37 °C–4 °C) (pmoles) Endocyt. / 4 °C/37 °C (Fluoro): CHO-K1, 60 min; for Total (37 °C–4 °C) (pmoles) Endocyt.: difference of fluorometry values at 37 °C and 4 °C; for 4 °C/37 °C (Fluoro): internalisation ratio by fluorometry; for Total 4 °C (pmoles) Transloc. / Total 37 °C (pmoles) Endocyt. + Transloc.: one million CHO-K1 cells, DMEM-F12, 60 min, cell lysis, fluorometry 525 nm vs calibration curve, mean values; for Total 4 °C (pmoles) Transloc.: pronase wash; for Total 37 °C (pmoles) Endocyt. + Transloc.: trypsin wash
Procedure: We used the quantification method described earlier (Illien et al. [2016]). […] After incubation with peptides and washing the cells with HBSS, 500 μL 0.05% trypsin/EDTA 0.05% (37 °C) or 500 µL pronase 0.05% in 100 mM Tris pH 7.4 (4 °C) was added for 5 min to hydrolyze the remaining extracellular peptide, the membrane-bound peptide and to detach cells. After addition of 100 µL enzyme inhibitors (complete mini at 4 °C (Roche) or trypsin inhibitor (soybean inhibitor 5 mg/mL) at 37 °C mixed with 100 μL bovine serum albumin (1 mg/mL), cells were transferred into a microtube, centrifuged, washed with 1 mL 50 mM Tris buffer pH 7.4, 0.1% BSA, and lysed in 200 μL 50 mM Tris pH 7.4, 1 M NaCl, 1% Nonident P40. The samples were then sonicated for 15 min (to homogenise samples) and centrifugated for 10 min at 16.000 g. Fluorescence intensity in the supernatants was monitored with a MOS 200 M fluorimeter (Biologic SAS) and the maximal intensity was detected around λ = 525 nm. The maximal intensity was retained for the calibration curve and for quantification of samples. The amount of internalised peptides was calculated by comparing the fluorescence intensity of the sample with the calibration curve. For the calibration curve, we prepared a range of peptide amounts (from 2 to 500 pmol) in the lysis buffer (50 mM Tris pH 7.4, 1 M NaCl, 1% Nonidet P40) in the presence of one million suspended cells. The samples were sonicated 15 min and centrifuged at 16.000 g for 10 min. Fluorescence intensity in the supernatants was monitored with a MOS 200 M fluorimeter (Biologic SAS, France) and the maximal intensity was detected around λ = 525 nm. The fluorescence signal of peptides only was obtained by subtracting the fluorescence intensity of cell lysates (autofluorescence) from the fluorescence intensity of the sample.

Question: What does the source list for `CN(C)c1ccc(/N=N/c2ccc(C(=O)N[C@@H](CCCNC(=N)N)C(=O)N[C@@H](CCCNC(=N)N)C(=O)N[C@@H](CCCNC(=N)N)C(=O)N[C@@H](CCCNC(=N)N)C(=O)N[C@@H](CCCNC(=N)N)C(=O)N[C@@H](CCCNC(=N)N)C(=O)N[C@@H](CCCCNC(=O)c3ccc4c(c3)C(=O)OC43c4ccc(O)cc4Oc4cc(O)ccc43)C(N)=O)cc2)cc1` [Dabcyl–Arg6–Lys(Cf)–NH2] (X1-RRRRRRK(5FAM)-NH2)?
Answer: Total (37 °C–4 °C) (pmoles) Endocyt. ([peptide] 1 μM): 1.9 pmol; 4 °C/37 °C (Fluoro) ([peptide] 1 μM): 0.25; Total 4 °C (pmoles) Transloc. ([peptide] 1 μM): 0.6 ± 0.04 pmol; Total 37 °C (pmoles) Endocyt. + Transloc. ([peptide] 1 μM): 2.5 ± 0.2 pmol; Total (37 °C–4 °C) (pmoles) Endocyt. ([peptide] 2.5 μM): 22 pmol; 4 °C/37 °C (Fluoro) ([peptide] 2.5 μM): 0.08; Total 4 °C (pmoles) Transloc. ([peptide] 2.5 μM): 1.9 ± 0.3 pmol; Total 37 °C (pmoles) Endocyt. + Transloc. ([peptide] 2.5 μM): 24 ± 1.3 pmol; Total (37 °C–4 °C) (pmoles) Endocyt. ([peptide] 5 μM): 53 pmol; 4 °C/37 °C (Fluoro) ([peptide] 5 μM): 0.10; Total 4 °C (pmoles) Transloc. ([peptide] 5 μM): 6.1 ± 0.8 pmol; Total 37 °C (pmoles) Endocyt. + Transloc. ([peptide] 5 μM): 59 ± 2.5 pmol; Total (37 °C–4 °C) (pmoles) Endocyt. ([peptide] 10 μM): 131 pmol; 4 °C/37 °C (Fluoro) ([peptide] 10 μM): 0.12; Total 4 °C (pmoles) Transloc. ([peptide] 10 μM): 18 ± 2 pmol; Total 37 °C (pmoles) Endocyt. + Transloc. ([peptide] 10 μM): 149 ± 6 pmol
